# Measurements: patent US8357375B2, “Process for the preparation and use of a bivalent vaccine against morphine-heroine addiction” (Instituto Nacional de Psiquiatria Ramon de la Fuente Muniz, priority 2004, dated 2013)
# System: anti-morphine-heroin serum antibodies
# Assay: competitive immunoenzymatic ELISA for antibody specificity
# Assay type: binding, rat
# Settings: competitive antigen, nM-μM range
row,Compound,cross-recognition by anti-morphine-heroin serum antibodies
1,"β-endorphin (YGGFMTSEKSQTPLVTLFKNAIIKNAYKKGE; Beta-endorphin; UniProt P01189 237-267, looked up) [endogenous opioid peptide produced in the CNS of mammals]",not able to cross-recognize
2,CN1CC[C@]23c4c5ccc(O)c4O[C@H]2[C@@H](O[C@@H]2O[C@H](C(=O)O)[C@@H](O)[C@H](O)[C@H]2O)C=C[C@H]3[C@H]1C5 [morphine-6-glucuronide],cross-recognize
3,CN1CC[C@]23c4c5ccc(O[C@@H]6O[C@H](C(=O)O)[C@@H](O)[C@H](O)[C@H]6O)c4O[C@H]2[C@@H](O)C=C[C@H]3[C@H]1C5 [morphine-3-glucuronide],cross-recognize
4,O=C1CC[C@@]2(O)[C@H]3Cc4ccc(O)c5c4[C@@]2(CCN3CC2CC2)[C@H]1O5 [naltrexone],no cross-recognition
